Data reported in patent US7294637B2 (Sepracor, Inc., priority 2000, dated 2007).
pEC50, pIC50: −log10 of the molar value. Like-named read-outs stand apart in the source and are kept apart here.

What was measured:
[1] = molecular target: T1, norepinephrine transporter (Homo sapiens, UniProt P23975); experiment: NE uptake: displacement of norephinephrine ligands in vitro (methods of Galli et al.); assay type: binding; details: NE Uptake, Uptake Profile (IC50, nM)
[2] = molecular target: T2, serotonin transporter (Homo sapiens, UniProt P31645); experiment: 5-HT uptake: displacement of serotonin ligands in vitro (methods of Gu et al.); assay type: binding; details: displacement of serotonin ligands in vitro; read-out: 5-HT Uptake, Uptake Profile (IC50)
[3] = molecular target: T1, norepinephrine transporter; experiment: Functional activity, norephinephrine uptake inhibition in MDCK cell lines; assay type: cell-based
[4] = test system: mouse; experiment: Acute toxicity assessment, maximum tolerated dose i.v., mouse; assay type: in vivo; details: mice
Protocol: (§1) An in vivo evaluation was carried out to determine the maximum tolerated dose of numerous test compounds in two animal species (mouse and rat). The compounds were administered i.v. and the animals were then observed for 72 h. Compounds 114, 115, 113, 110, 124, 125, 129, and 130 were solubilized in 5% dextrose (w/v)/polyethylene glycol 400 (4:1 v/v). Compounds 126, 127, 131, and 132 were solubilized in 10% hydroxypropyl-β-cyclodextrin (w/v).

[5] = test system: rat; experiment: Acute toxicity assessment, maximum tolerated dose i.v., rat; assay type: in vivo; details: rats
Protocol: as §1

[6] = test system: Sprague-Dawley rats; experiment: Spontaneous locomotor activity in rats (Example 141); assay type: in vivo, rat
Protocol: The effect of 124 and 126 on spontaneous locomotor activity in rats was determined according to the procedures outlined by Silverman et al. (Motor Activity. In “Animal behavior in the laboratory”, Chapman and Hall eds, London, p. 79-92, 1978) and Boissier et al. (Arch. Int. Pharmacodyn. 1965, 158, 212. )
Test items and test item vehicles were administered to male Sprague-Dawley rats (n=10) as a single i.p. dose (vehicle A=10% hydroxypropyl-β-cyclodextrin in water; vehicle B=4:1 5% aqueous dextrose:PEG 400). […] Locomotor activity was determined during 20 minute periods using video image analyzers. Images recorded with video cameras were digitalized and displacements of the center of gravity of the digital image spot were tracked and analyzed. When the speed of displacement of the center of gravity of the spot was below 4.26 cm/sec, the movement was considered as inactivity. When this speed was between 4.26 and 6.75 cm/sec, the movement was considered as a small movement. When this speed was above 6.75 cm/sec, the movement was considered as a large movement. The number of occurrences, distance and duration of fast and slow movements, number of occurrences and duration of periods of inactivity and number of rears were measured.

[7] = test system: rats; assay type: in vivo, rat
Protocol: The animals were preconditioned in a pretest session, where the rats were individually forced to swim inside a vertical plexiglass cylinder containing water maintained at 19-20° C. […] Twenty four hours later, the compounds were administered intraperitoneal to the animals. One hour after administration of the test compound, animals were put back into the cylinder containing water. The total duration of immobility was measured during the last 4 minutes of a 6 minute test.
(§2) The results are expressed as the percentage of variation of the total duration of immobility calculated from the mean value of the vehicle-treated group (% variation=[(immobility duration of vehicle-immobility duration of test compound)/(immobility duration of vehicle)]×100%).

[8] = test system: rats; experiment: Behavioral despair assay in rats, 3 i.p. injections (Example 143); assay type: in vivo, rat; details: for % variation of the total duration of immobility: 3 i.p. injections 24 h, 5 h and 1 h before test
Description: The objective of this study was to assess the antidepressant effects of test compounds 124, 125, 126, and 127 in the behavioral despair assay in rats according to the methods described by Porsolt R. D., Anton G., Blavet N., Jalfre M., Behavioural despair in rats: a new model sensitive to antidepressant treatment, Eur. J. Pharmacol., 1978, 47, 379-391. The animals were preconditioned in a pretest session, where the rats were individually forced to swim inside a vertical plexiglass cylinder containing water maintained at 19-20° C. After 15 minutes in the water, they were allowed to dry for 15 minutes in a heated enclosure. Twenty four hours later, they were replaced in the cylinder and the total duration of immobility was measured during a 5 minute test (test session). The test compounds and vehicle were administered as a series of 3 intraperitoneal injections 24 h, 5 h and 1 h before the 5 minute test on the second day.
as §2

[9] = test system: Sprague-Dawley rats; experiment: Spontaneous locomotor activity in rats, 1-24 hours (Example 223); assay type: in vivo, rat; details: 10 mg/kg i.p.
Protocol: The effect of 124 and 126 on spontaneous locomotor activity in rats was determined according to the procedures outlined by Silverman et al. (Motor Activity. In “Animal behavior in the laboratory”, Chapman and Hall eds, London, p. 79-92, 1978) and Boissier et al. (Arch. Int. Pharmacodyn. 1965, 158, 212. ) Test items and test item vehicles were administered to male Sprague-Dawley rats (n=10) as a single i.p. dose. One, three, five, eight and twenty four hours following administration, rats were placed in a plastic box 30×30 cm in a room with low light intensity (maximum 50 lux). Locomotor activity was determined during 20 minute periods using video image analyzers. Images recorded with video cameras were digitalized and displacements of the center of gravity of the digital image spot were tracked and analyzed. When the speed of displacement of the center of gravity of the spot was below 4.26 cm/sec, the movement was considered as inactivity. When this speed was between 4.26 and 6.75 cm/sec, the movement was considered as a small movement. When this speed was above 6.75 cm/sec, the movement was considered as a large movement. The number of occurrences, distance and duration of fast and slow movements, number of occurrences and duration of periods of inactivity and number of rears were measured.

[10] = molecular target: DAT (Homo sapiens, UniProt Q01959); experiment: cell-based; parameters: expressed in transfected cells; details: hDAT cell line; read-out: DA Uptake, Functional Assays (antagonism, EC50)
[11] = molecular target: T2, serotonin transporter; experiment: Functional activity, serotonin uptake inhibition in human HEK-293 cell lines; assay type: cell-based; parameters: expressed in transfected cells; host or cells: HEK-293; details: human HEK-293 cell lines; read-out: 5-HT Uptake, Functional Assays (antagonism, EC50)
[12] = molecular target: dopamine transporter (Homo sapiens, UniProt Q01959); experiment: DA uptake: displacement of dopamine ligands in vitro (methods of Gu et al.); details: DA Uptake, Uptake Profile (IC50, nM), displacement of dopamine ligands in vitro
[13] = 2.5 mg/kg i.p., 1 h before test

T1 sequence (P23975 whole entry): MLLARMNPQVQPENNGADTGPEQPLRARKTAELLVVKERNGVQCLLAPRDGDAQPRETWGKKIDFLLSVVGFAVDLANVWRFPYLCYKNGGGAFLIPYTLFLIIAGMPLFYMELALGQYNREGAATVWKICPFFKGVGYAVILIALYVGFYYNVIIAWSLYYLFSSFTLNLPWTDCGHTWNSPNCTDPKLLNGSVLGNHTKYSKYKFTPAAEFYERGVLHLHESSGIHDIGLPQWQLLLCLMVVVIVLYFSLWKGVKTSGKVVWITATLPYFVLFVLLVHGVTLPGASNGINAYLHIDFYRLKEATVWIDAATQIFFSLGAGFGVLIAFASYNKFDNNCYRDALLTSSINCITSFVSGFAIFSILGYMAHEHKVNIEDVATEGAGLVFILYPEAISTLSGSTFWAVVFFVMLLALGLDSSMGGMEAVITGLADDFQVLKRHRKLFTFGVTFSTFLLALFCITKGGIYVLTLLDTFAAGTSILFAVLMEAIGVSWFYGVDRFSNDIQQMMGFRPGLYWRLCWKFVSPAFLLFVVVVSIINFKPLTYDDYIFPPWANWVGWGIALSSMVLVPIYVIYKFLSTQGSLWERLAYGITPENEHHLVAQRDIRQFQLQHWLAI
T2 sequence (P31645 whole entry): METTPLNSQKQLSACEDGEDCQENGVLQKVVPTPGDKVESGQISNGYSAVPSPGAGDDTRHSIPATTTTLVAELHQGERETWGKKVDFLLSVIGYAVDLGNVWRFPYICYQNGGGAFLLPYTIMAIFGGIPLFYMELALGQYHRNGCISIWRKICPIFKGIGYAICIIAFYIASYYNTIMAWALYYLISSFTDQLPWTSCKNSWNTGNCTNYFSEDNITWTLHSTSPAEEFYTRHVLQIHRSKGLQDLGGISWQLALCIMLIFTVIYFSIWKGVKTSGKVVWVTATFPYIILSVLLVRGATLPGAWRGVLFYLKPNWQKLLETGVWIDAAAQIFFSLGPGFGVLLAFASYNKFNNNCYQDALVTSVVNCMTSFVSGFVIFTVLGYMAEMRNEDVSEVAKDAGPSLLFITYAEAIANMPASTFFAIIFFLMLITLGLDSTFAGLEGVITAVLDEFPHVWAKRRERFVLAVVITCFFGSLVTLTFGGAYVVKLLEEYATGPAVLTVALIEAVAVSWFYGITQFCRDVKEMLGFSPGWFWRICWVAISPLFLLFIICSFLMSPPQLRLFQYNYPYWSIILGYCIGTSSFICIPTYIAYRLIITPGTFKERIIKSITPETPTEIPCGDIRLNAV
Chain of dopamine transporter (Q01959 whole entry): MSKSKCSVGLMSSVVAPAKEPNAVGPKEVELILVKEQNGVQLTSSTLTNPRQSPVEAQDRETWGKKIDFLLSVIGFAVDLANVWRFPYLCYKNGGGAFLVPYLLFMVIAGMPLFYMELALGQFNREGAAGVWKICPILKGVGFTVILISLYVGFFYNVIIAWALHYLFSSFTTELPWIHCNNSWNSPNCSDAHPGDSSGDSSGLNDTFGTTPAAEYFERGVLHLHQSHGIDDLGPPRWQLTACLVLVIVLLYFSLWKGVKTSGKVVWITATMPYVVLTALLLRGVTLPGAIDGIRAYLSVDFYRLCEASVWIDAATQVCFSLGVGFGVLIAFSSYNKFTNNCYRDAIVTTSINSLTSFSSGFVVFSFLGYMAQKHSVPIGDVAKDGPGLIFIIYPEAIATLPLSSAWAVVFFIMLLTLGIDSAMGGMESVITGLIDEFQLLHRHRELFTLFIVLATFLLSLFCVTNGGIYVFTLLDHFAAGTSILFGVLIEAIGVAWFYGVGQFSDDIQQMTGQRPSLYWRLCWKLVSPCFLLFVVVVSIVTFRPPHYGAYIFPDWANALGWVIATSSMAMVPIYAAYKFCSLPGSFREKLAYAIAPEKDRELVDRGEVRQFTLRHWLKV
Chain of DAT (Q01959 whole entry): as above

O[C@H](CN1CCC[C@H](COc2ccc(C(F)(F)F)cc2)C1)C1(c2ccc(Cl)cc2)CCC1 [compound 124, 1S-1-[1-(4-Chloro-phenyl)-cyclobutyl]-2-[(3S)-3-(4-trifluoromethyl-phenoxymethyl)-piperidin-1-yl]-ethanol]
IC50 [1]: < 100 nM
pIC50 [2]: > 6.00
pEC50 [3]: > 6.00
tolerability and mortality after 72 h ([4]; 10 mg/kg i.v.): well tolerated
tolerability and mortality after 72 h ([5]; 10 mg/kg i.v.): well tolerated
Small Movement Occurrences ([6]; 5 mg/kg i.p.): 484.5 ± 114.1
Large Movement Occurrences ([6]; 5 mg/kg i.p., 20 min): 228.7 ± 22.5 ^
Small Movement Occurrences ([6]; 5 mg/kg i.p., 20 min): 589.2 ± 50.4 ^
Large Movement Occurrences ([6]; 5 mg/kg i.p., 60 min): 74.3 ± 14.8
Small Movement Occurrences ([6]; 5 mg/kg i.p., 60 min): 232.8 ± 33.6 ^
Large Movement Occurrences ([6]; 5 mg/kg i.p., 120 min): 168.5 ± 61.5 ^
Small Movement Occurrences ([6]; 5 mg/kg i.p., 120 min): 443.1 ± 100.6
Large Movement Occurrences ([6]; 5 mg/kg i.p., 180 min): 212.5 ± 65.1 ^
Large Movement Occurrences ([6]; 10 mg/kg i.p., 20 min): 391.5 ± 63.3
Small Movement Occurrences ([6]; 10 mg/kg i.p., 20 min): 919.6 ± 96.4
Large Movement Occurrences ([6]; 10 mg/kg i.p., 60 min): 427.6 ± 95.8
Small Movement Occurrences ([6]; 10 mg/kg i.p., 60 min): 965.2 ± 153.9
Large Movement Occurrences ([6]; 10 mg/kg i.p., 120 min): 603.5 ± 97.4
Small Movement Occurrences ([6]; 10 mg/kg i.p., 120 min): 1201.4 ± 160.9
locomotor activity compared to control animals ([6]; dosed at 5 and 10 mg/kg i.p.): significant increase
% variation of the total duration of immobility [7, 13]: 6%
% variation of the total duration of immobility ([7]; 10 mg/kg i.p., 1 h before test): 91%
% variation of the total duration of immobility ([8]; 1.0 mg/kg): 29%
% variation of the total duration of immobility ([8]; 2.0 mg/kg): 71%
effectiveness (statistically significant variation >30%) ([8]; 2.5 mg/kg): effective
% variation of the total duration of immobility ([8]; 2.5 mg/kg): 59%
Large Movement Occurrences ([9]; 1 hour): 655 ± 83
Small Movement Occurrences ([9]; 1 hour): 1258 ± 83
Large Movement Occurrences ([9]; 3 hours): 751 ± 122
Small Movement Occurrences ([9]; 3 hours): 1386 ± 96
Large Movement Occurrences ([9]; 5 hours): 616 ± 82
Small Movement Occurrences ([9]; 5 hours): 1277 ± 100
Large Movement Occurrences ([9]; 8 hours): 455 ± 69
Small Movement Occurrences ([9]; 8 hours): 1042 ± 109
Large Movement Occurrences ([9]; 24 hours): 440 ± 55
Small Movement Occurrences ([9]; 24 hours): 934 ± 87
locomotor activity compared to control animals ([9]; at all times tested (1, 3, 5, 8, 24 hours)): significant increase
pEC50 [10]: > 8.00
pEC50 [11]: > 6.00
IC50 [12]: < 10 nM

CN1Cc2c(N)cccc2C(c2ccccc2)C1 (centres unmarked) [nomifensine, reference compound]
% variation of the total duration of immobility ([7]; rat, in vivo): 78%

FC(F)(F)c1ccc(COC[C@@H]2CCCN(CC3(c4ccc(Cl)cc4)CCC3)C2)cc1 [compound 130, R-1-[1-(4-Chloro-phenyl)-cyclobutylmethyl]-3-(4-trifluoromethyl-benzyloxymethyl)-piperidine]
IC50 [1]: < 1000 nM
pIC50 [2]: > 6.00
pEC50 [3]: > 7.00
tolerability and mortality after 72 h ([4]; 30 mg/kg i.v.): well tolerated
tolerability and mortality after 72 h ([5]; 30 mg/kg i.v.): well tolerated
pEC50 [10]: > 8.00
pEC50 [11]: < 6.00
IC50 [12]: < 100 nM

O[C@@H](CN1CCC[C@H](COc2ccc(C(F)(F)F)cc2)C1)C1(c2ccc(Cl)cc2)CCC1 [compound 125, 1R-1-[1-(4-Chloro-phenyl)-cyclobutyl]-2-[(3S)-3-(4-trifluoromethyl-phenoxymethyl)-piperidin-1-yl]-ethanol]
IC50 [1]: < 100 nM
pIC50 [2]: > 6.00
pEC50 [3]: > 6.00
tolerability and mortality after 72 h ([4]; 30 mg/kg i.v.): well tolerated
tolerability and mortality after 72 h ([5]; 30 mg/kg i.v.): well tolerated
% variation of the total duration of immobility ([7]; 10 mg/kg i.p., 1 h before test): 55%
% variation of the total duration of immobility ([8]; 2.5 mg/kg): 12%
pEC50 [10]: > 8.00
pEC50 [11]: > 6.00
IC50 [12]: < 10 nM

O[C@@H](CN1CCC[C@@H](COc2ccc(C(F)(F)F)cc2)C1)C1(c2ccc(Cl)cc2)CCC1 [compound 127, 1S-1-[1-(4-Chloro-phenyl)-cyclobutyl]-2-[(3R)-3-(4-trifluoromethyl-phenoxymethyl)-piperidin-1-yl]-ethanol]
IC50 [1]: < 100 nM
pIC50 [2]: < 6.00
pEC50 [3]: > 6.00
tolerability and mortality after 72 h ([4]; 30 mg/kg i.v.): well tolerated
tolerability and mortality after 72 h ([5]; 30 mg/kg i.v.): well tolerated
% variation of the total duration of immobility [7, 13]: 25%
% variation of the total duration of immobility ([7]; 10 mg/kg i.p., 1 h before test): 67%
% variation of the total duration of immobility ([8]; 1.0 mg/kg): 14%
% variation of the total duration of immobility ([8]; 2.0 mg/kg): 39%
effectiveness (statistically significant variation >30%) ([8]; 2.5 mg/kg): effective
% variation of the total duration of immobility ([8]; 2.5 mg/kg): 39%
% variation of the total duration of immobility ([8]; 3.0 mg/kg): 64%
pEC50 [10]: > 8.00
pEC50 [11]: < 6.00
IC50 [12]: < 10 nM
